The results in this text go back to ChEMBL document CHEMBL1201862, “PubChem BioAssay data set” (2004).

Data set [1] deals with Streptococcus sp. 'group A'. Nature of the data set: growth inhibition of control SK(-) GAS strain, dose response, counter-screen for streptokinase expression inhibitor project, luminescence, kanamycin, BacTiterGlo, confirmation (AID 1900). It is filed as functional, organism-based. On the technique in general: The purpose of a counterscreen is to sort out artefacts and off-target activity.

The target in data set [2] is T1, Streptokinase A (Streptococcus pyogenes serotype M1, UniProt P10520).
T1 sequence (P10520 whole entry): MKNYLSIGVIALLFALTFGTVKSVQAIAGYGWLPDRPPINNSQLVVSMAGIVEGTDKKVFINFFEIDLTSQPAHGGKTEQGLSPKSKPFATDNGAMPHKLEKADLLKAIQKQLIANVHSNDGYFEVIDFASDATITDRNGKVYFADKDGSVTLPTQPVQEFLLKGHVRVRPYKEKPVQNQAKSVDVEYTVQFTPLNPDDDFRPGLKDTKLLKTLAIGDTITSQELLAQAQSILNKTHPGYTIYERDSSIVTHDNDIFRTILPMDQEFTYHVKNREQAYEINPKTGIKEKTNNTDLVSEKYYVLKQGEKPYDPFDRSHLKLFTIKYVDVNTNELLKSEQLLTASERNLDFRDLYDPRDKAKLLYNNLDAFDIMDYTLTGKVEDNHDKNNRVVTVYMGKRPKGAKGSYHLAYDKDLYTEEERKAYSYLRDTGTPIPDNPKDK
Nature of the data set: S. pyogenes streptokinase expression inhibitors, potency, dose response, plasminogen activation absorbance, OD405 (AID 1914).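 Further: secreted streptokinase activity via plasminogen activation per viability signal from cell pellet.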 It is filed as functional, Streptococcus pyogenes M1 GAS.

Data set [3] relates to Streptococcus. Nature of the data set: Group A Streptococcus viability loss, dose response, counter-screen for streptokinase expression inhibitor project, luminescence, BacTiterGlo (AID 1915).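 Further: potency for reduction of bacterial viability or growth.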 It is filed as functional, organism-based.
Data set [4] deals with T2, Heat shock factor protein 1 (Mus musculus, UniProt P38532).
T2 sequence (P38532 whole entry): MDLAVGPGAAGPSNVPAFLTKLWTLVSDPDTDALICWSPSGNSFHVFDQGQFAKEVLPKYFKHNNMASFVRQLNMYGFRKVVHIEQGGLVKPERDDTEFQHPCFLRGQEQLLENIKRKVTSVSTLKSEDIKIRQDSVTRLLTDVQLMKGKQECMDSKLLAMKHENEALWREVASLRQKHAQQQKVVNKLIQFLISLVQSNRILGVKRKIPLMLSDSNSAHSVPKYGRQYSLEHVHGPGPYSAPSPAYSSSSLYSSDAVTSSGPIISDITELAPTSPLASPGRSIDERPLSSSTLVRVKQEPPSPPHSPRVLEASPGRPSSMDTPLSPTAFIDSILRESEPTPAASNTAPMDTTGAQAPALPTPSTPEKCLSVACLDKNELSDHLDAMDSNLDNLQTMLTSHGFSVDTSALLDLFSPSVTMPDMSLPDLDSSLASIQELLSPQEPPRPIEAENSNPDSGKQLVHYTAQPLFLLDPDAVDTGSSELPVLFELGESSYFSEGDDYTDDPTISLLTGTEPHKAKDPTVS
Kind of data set: inhibition of MG132-induced HSE-luciferase signal, confirmation, cell-based, NIH3T3, luminescence, dose retest (AID 2382).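 Further: NIH3T3 fibroblasts with HSF1-driven luciferase reporter stressed by proteasome inhibitor MG132; luminescence from HSF1-driven luciferase expression after 8 hours of MG132 stress.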 It is filed as functional.

The nature of data set [5]: inhibitors of intracellular T. cruzi replication, confirmation, NIH3T3 host cells, beta-gal luminescence (AID 2044).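 Further: intracellular parasites grown in NIH/3T3 mouse fibroblasts as host cells; luminescent beta-galactosidase reporter signal from transgenic T. cruzi replicating inside host cells; inhibitors lower the luminescence signal.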 It is filed as functional, cell-based.
Data set [6] is described as follows: cytotoxicity toward NIH3T3 fibroblasts, dose response, counter-screen, cell-based, ATP luminescence, mouse fibroblasts (AID 2010).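 Further: cells exposed to compound for about 90 hours before reading.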 It is filed as functional.
The nature of data set [7]: Luminescence Cell-Based Dose Retest to Confirm Inhibitors of Cancer Stem Cells. [Related pubchem assays (depositor defined):AID2717, AID2721]. It is filed as functional. The note with it: Homo sapiens.
The target in data set [8] is Cytochrome P450 2C19 (Homo sapiens, UniProt P33261). Kind of data set: Cytochrome panel assay with activity outcomes. Panel member name: p450-cyp2c19 Compounds with AC50 equal or less than 10 uM are considered active. It is filed as functional.
Cytochrome P450 2C19, sequence (P33261 whole entry): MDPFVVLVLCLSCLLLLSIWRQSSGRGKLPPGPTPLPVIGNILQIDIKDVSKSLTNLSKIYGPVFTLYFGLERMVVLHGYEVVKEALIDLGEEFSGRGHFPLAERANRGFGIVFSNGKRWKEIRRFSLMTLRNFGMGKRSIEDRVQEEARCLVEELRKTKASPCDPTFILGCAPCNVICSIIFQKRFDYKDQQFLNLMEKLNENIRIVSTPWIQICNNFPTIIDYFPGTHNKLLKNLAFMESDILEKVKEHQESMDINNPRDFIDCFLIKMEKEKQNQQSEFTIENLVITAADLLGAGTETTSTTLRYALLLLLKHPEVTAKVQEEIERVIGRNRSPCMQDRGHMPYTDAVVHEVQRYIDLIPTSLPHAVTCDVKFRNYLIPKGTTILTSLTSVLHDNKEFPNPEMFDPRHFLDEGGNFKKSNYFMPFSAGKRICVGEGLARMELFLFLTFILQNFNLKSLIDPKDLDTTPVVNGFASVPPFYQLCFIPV

Calls of active or inactive are those of the source.

The EC50 is the concentration that produces a half-maximal response. `O=C(OCc1ccc(COC(=O)c2ccc(O)cc2)cc1)c1ccc(O)cc1`: the concentration for a half-maximal effect (EC50) is 5.67 µM (active) in data set [1], > 150 µM (not active) in data set [2] and 8.51 µM (active) in data set [3]. Consider `O=C(NCc1ccco1)C1CCN(S(=O)(=O)c2cccc([N+](=O)[O-])c2)CC1`, for which, in data set [4], the EC50 was > 195 µM (not active). For `COc1ccc([C@@H]2C[C@@H](c3ccccc3)Oc3c(C)ccc(C(C)C)c32)cc1`, the EC50 in data set [4] was > 195 µM (not active).

Regarding `CCCCCSc1nc(C)c(CC(=O)O)c(O)n1`, the concentration giving a half-maximal response (EC50) in data set [4] is > 195 µM (not active). Turning to `Cc1ccc(CCNC(=O)CN=C(S)N(Cc2ccccc2)Cc2cccnc2)cc1`, the EC50 in data set [5] was 1.28 µM (active); in data set [6] it was > 60 µM (not active).

Take `COc1cc(C(=O)N2CCN(C(=O)CC(C)C)CC2)cc(OC)c1OC`: the EC50 in data set [4] was 9.31 µM (active). Regarding `COc1ccc(OC)c(NC(=O)C2CCCN(S(=O)(=O)c3c(C)nn(C)c3C)C2)c1` (stereo not given), in data set [4], the EC50 is on record as > 195 µM (not active). `Cc1ccc2nc3c(cc(S(=O)(=O)c4ccccc4)c(=N)n3Cc3ccco3)c(=O)n2c1`: the values for the EC50 in data set [5] and in data set [6] were 3 µM (active) and > 60 µM (not active), respectively.

For orientation: AC50 means the midpoint of the concentration-response curve, whichever way the signal moves. Turning to `COc1cc(CNc2ccc(CNc3nc[nH]n3)cc2)ccc1OCc1ccccc1`, the AC50 in data set [7] is 2.25 µM (active). As for `C[C@@]12CC[C@H](O)C[C@@H]1CC[C@H]1[C@@H]2C[C@@H](O)[C@]2(C)[C@@H](C3=CC(=O)OC3)CC[C@]12O`, in data set [8], the AC50 result is “inconclusive”. As for `Cc1ccc(OCC(=O)Nc2ccccc2C(=O)N2CCCCC2)cc1`, the EC50 in data set [4] was > 195 µM (not active). Turning to `CCC(C)n1c(C)nc2c(c1=O)c1nc3ccccc3nc1n2CCC1=CCCCC1` (stereo not given), the EC50 in data set [5] was 3.7 µM (active); in data set [6], > 60 µM (not active). `CC(C)(CNC(=O)c1ccccc1)CNC1=NS(=O)(=O)c2ccccc21`: the EC50 in data set [1], in data set [2] and in data set [3] was > 150 µM (not active) each time. On to `COc1ccc(C(=O)C2CCCN(Cc3sc(N4CCCC4)nc3Cl)C2)c(OC)c1` (stereo not given), for which the values for the EC50 in data set [5] and in data set [6] were 0.927 µM (active) and > 60 µM (not active), respectively.

For `CCCOC(=O)c1ccc(Oc2c(-c3ccc(OCC)cc3O)n[nH]c2C)cc1`, the EC50 in data set [2] is > 150 µM (not active). As for `Cc1cc(C)cc(N2C(=O)CN(Cc3ccccc3)C2=S)c1`, in data set [4], the EC50 was > 195 µM (not active).

With `CCCOc1ccc(Cn2c(=O)oc3ccc(C)cc32)cc1OC`, the EC50 in data set [4] was > 195 µM (not active). Consider `Cc1ccc(OCCCCN2CCCCC2)c(Br)c1`, for which the figures for the EC50 in data set [5] and in data set [6] were 2.16 µM (active) and > 60 µM (not active), respectively. On to `CCc1c(-c2ccccc2)nc2sc3c(c2c1N)CCCC3`, for which the EC50 in data set [5] was 2.01 µM (active); in data set [6] it was > 60 µM (not active). For `COc1ccc(-c2csc(N(CCc3ccc(OC)c(OC)c3)C(=O)COc3ccccc3)n2)cc1`, the EC50 in data set [4] was > 195 µM (not active).

On to `O=C(O)c1ccc(Cl)c(S(=O)(=O)N(Cc2ccccc2)c2ccc(F)cc2)c1`, for which, in data set [7], the AC50 is 31.2 µM (active). In the case of `CCC(C)Oc1cc(-c2ccnc(Nc3cccc(Cl)c3)n2)ccn1` (stereo not given), the concentration for a half-maximal effect (EC50) in data set [5] was 1.7 µM (active); in data set [6], 7.53 µM (active). Turning to `CC(C)CCNC(=O)C1CCC(CNS(=O)(=O)c2cccc3nsnc23)CC1` (stereo not given), the EC50 in data set [5] and in data set [6] was > 30 µM (not active) each time. As to `Cc1ccc(C(C)C)c(OCC(=O)NC2CCN(C)CC2)c1`, the figures for the EC50 in data set [5] and in data set [6] were 1.21 µM (active) and > 60 µM (not active), respectively. In the case of `CC1C=Cc2ccccc2N1C(=O)c1ccccc1` (stereo not given), the concentration giving a half-maximal response (EC50) in data set [4] is reported as > 195 µM (not active).

Consider `CC(C)Oc1cccc(C(=O)NC(=S)Nc2ccccc2)c1`, for which the EC50 in data set [4] is > 195 µM (not active). For the molecule `O=C(c1cccc(S(=O)(=O)N2CCOCC2)c1)N(Cc1nnc(-c2ccccc2Cl)o1)C1CC1`, the EC50 in data set [4] is reported as > 195 µM (not active).

Turning to `CCOC(=O)C1(Cc2ccccc2)CCCN(CCCn2cccn2)C1` (stereo not given), the EC50 in data set [4] is > 195 µM (not active). `O=C(Nc1cccc(S(=O)(=O)c2cccc(NC(=O)c3ccco3)c2)c1)c1ccco1`: the EC50 in data set [5] was 0.869 µM (active); in data set [6], > 60 µM (not active). For `CN(Cc1ccccc1)Cc1c[nH]c2ccccc12`, the values for the EC50 in data set [5] and in data set [6] were 0.972 µM (active) and > 60 µM (not active), respectively. As to `CCCc1nc2ccccc2c(C(=O)OCC(=O)Nc2ccc(S(=O)(=O)N3CCOCC3)cc2)c1CC`, the EC50 in data set [1] is 18.1 µM (active); in data set [2], 26 µM (active); in data set [3] it was 52.8 µM (active). Further, the half-maximal activity concentration (AC50) in data set [7] is 4.04 µM (active). `Cc1cc2c(c(=O)n1Cc1ccc3c(c1)OCO3)C(c1cccnc1)C(C#N)=C(N)O2` (stereo not given): the EC50 in data set [5] was 1.94 µM (active); in data set [6], > 60 µM (not active). `c1ccc(CCn2nnnc2C(c2cccnc2)N2CCN(c3ccccc3)CC2)cc1` (stereo not given): the values for the concentration giving a half-maximal response (EC50) in data set [5] and in data set [6] were 0.263 µM (active) and 4.77 µM (active), respectively. In the case of `COc1ccc(/C=C/C(=O)c2ccccc2)cc1Cn1nnc2ccccc21`, the AC50 in data set [7] is 4.11 µM (active). Turning to `N#C/C(=C(/O)COc1ccccc1)c1nc2ccccc2s1`, the results for the EC50 in data set [1], in data set [2] and in data set [3] were 26.7 µM (active), 7.55 µM (active) and > 150 µM (not active), respectively. In the case of `CC(=O)c1cccc(NC(=O)C2CC(=O)N(CCc3ccccc3)C2)c1` (stereo not given), the EC50 in data set [4] is recorded as > 195 µM (not active). With `COc1ccc2nc(N=C(N)N=C(S)Nc3c(C)cccc3C)nc(C)c2c1`, the figures for the concentration for a half-maximal effect (EC50) in data set [1] and in data set [3] were 21.7 µM (active) and > 150 µM (not active), respectively. As to `COc1ccc2nc(N=C(N)NC(=S)Nc3c(C)cccc3C)nc(C)c2c1`, the EC50 in data set [2] is 42 µM (inconclusive). Turning to `Cc1cc(Nc2nc(Cl)c(Cl)cc2Cl)n(-c2ccccc2)n1`, the AC50 in data set [7] was 3.95 µM (active).

With `Cc1ccc(NC(=O)N(Cc2cccnc2)Cc2ccco2)cc1C`, the EC50 is 1.39 µM (active) in data set [5] and > 60 µM (not active) in data set [6]. On to `COc1ccc(CNC(=O)CCCNC(=O)c2ccc(Cl)cc2)cc1OC`, for which, in data set [4], the EC50 is > 195 µM (not active). Take `COc1ccc(OC)c(N(CC(=O)Nc2ccccc2)S(C)(=O)=O)c1`: in data set [4], the EC50 is > 195 µM (not active). `CC(C)c1ccccc1OCC(O)CN(CC(O)COc1cccc2ccccc12)C(C)C` (stereo not given): the EC50 was 4.05 µM (active) in data set [1], 3.45 µM (active) in data set [5], > 30 µM (not active) in data set [6] and 7.04 µM (active) in data set [3]. In addition, in data set [7], the AC50 was 2.82 µM (active). With `c1cnc2ccc(C(c3nnnn3C3CCCCC3)N3CCN(C4CCCCC4)CC3)cc2c1` (stereo not given), the values for the half-maximal effective concentration (EC50) in data set [5] and in data set [6] were 8.47 µM (active) and 4.37 µM (active), respectively. For the molecule `O=C(Nc1cccc(Cl)c1)Nc1ccccc1-n1ccnc1`, the concentration for a half-maximal effect (EC50) in data set [5] was 0.461 µM (active); in data set [6], > 60 µM (not active). The corresponding values for `Cc1ccc2c(c1)C1CN(C)CCC1N2C(=O)c1cccc(S(=O)(=O)N2CC(C)CC(C)C2)c1` (stereo not given) are 0.216 µM (active) and > 30 µM (not active).

As for `Cc1ccc(S(=O)(=O)N(C)c2ccc(OCc3cccc(C)c3)cc2)cc1`, the AC50 in data set [7] was 0.898 µM (active). As for `CC(C)c1ccc2c(c1)c(SC(C)(C)C)c(CC(C)(C)C(=O)O)n2Cc1ccc(Cl)cc1`, the EC50 in data set [1] was 1.07 µM (active); in data set [2], 1.24 µM (active).

For `C/C(=N\NC(=O)CN1CCN(Cc2ccccc2)CC1)c1cccs1`, the EC50 in data set [4] was > 195 µM (not active). On to `Fc1ccc(CO/N=C/C2=C(Cl)c3ccccc3CC2)cc1`, for which the EC50 in data set [1] is 6.39 µM (active); in data set [4], > 195 µM (not active); in data set [2], 13.5 µM (active); in data set [3], > 150 µM (not active).
